# Measurements as given in publication PMC7393058, “Design, Synthesis, Molecular Modeling Study and Biological Evaluation of New N'-Arylidene-pyrido [2,3-d]pyrimidine-5-carbohydrazide Derivatives as Anti-HIV-1 Agents” (Iranian Journal of Pharmaceutical Research : IJPR, 2019).
# pEC50: −log10 of the molar value. Read-outs that look alike come from different tables or passages of the source.
# Experiments:
# [1] = XTT proliferation (cytotoxicity) assay; format: cell-based, human; conditions: human; XTT, Hela cells
# Method: (§1) The evaluation of inhibitory effect of synthesized compounds was performed by single-round replication assay which was evaluated in our laboratory and reported previously ([34]-[40]). Briefly, Hela cells (6 × 10^3 per well of 96-wells plate) were incubated with single cycle replicable HIV NL4-3 virions (200 ng p24) in the presence of various concentrations of compounds which were added concurrently with viral infection. The supernatants were collected 72 h postinfection and evaluated for p24 antigen load by capture ELISA (Biomerieux, France). Percentage inhibition of p24 expression in the treated culture was calculated as inhibition rate of p24 (%). The 50% effective concentration (EC50) was determined for each compound. XTT proliferation method was performed to evaluate the cellular toxicity of compounds. Toxicities of the compounds against the cells were quantified using XTT (sodium 3-[1 (phenyl aminocarbonyl)-3,4-tetrazolium]-bis(4-methoxy-6-nitro)benzene sulfonic acid) reagent, according to the kit instruction (Roche, Germany) ([41], [42]). Concentration which reduces proliferation of 50% of cells (CC50) was calculated subsequent to determination of p24 load. For EC50 and CC50 determinations, the compounds were tested at six concentrations ([…]) in triplicates.
# (§2) All new synthesized compounds were evaluated for their activity against single cycle replicable HIV NL4-3 by determining their ability to inhibit p24 expression in Hela cell cultures. The well-known nucleoside RT inhibitor (AZT) was assayed in the same cells for comparative purpose. They all were then subjected to cell based XTT colorimetric assay for cytotoxicity to ensure that the anti-HIV-1 activity of the compounds was not a result of their cytotoxic effects ([43], [44]). The biological results are expressed as EC50, CC50, and SI (selectivity index, given by the CC50/EC50 ratio). […] When comparing the anti-HIV-1 activity of tested compounds, it appeared that the presence of substituents on benzylidene fragment confers better inhibition than the unsubstituted counterparts (compound 5a, EC50 >[…]).
# [2] = test system: single cycle replicable HIV NL4-3; test: single-round replication assay, inhibition of p24 expression (capture ELISA) in Hela cells; format: cell-based, HIV-1; conditions: for SI=CC50/EC50: selectivity index, CC50/EC50 ratio
# Method: as §1, §2
# [3] = test system: Hela cells; test: XTT proliferation (cytotoxicity) assay; format: cell-based, human
# Method: as §1, §2
# [4] = Human immunodeficiency virus 1, NL43, HeLa, 72 h
SMILES,melting point,CC50 at 72 h [1] [µM],"pEC50 [2, 4]",SI=CC50/EC50 [2],CC50 [3] [µM],"pEC50 ([2]; inhibition of p24 expression, Hela cells, 72 h postinfection, triplicates, read-out: EC50)"
Cc1ccccc1C=NNC(=O)c1cc(=O)[nH]c2c1c(=O)n(C)c(=O)n2C,277 °C (dec.),–,–,–,–,–
"COc1ccccc1C=NNC(=O)c1cc(=O)[nH]c2c1c(=O)n(C)c(=O)n2C [Compound 5b, N’-(2-methoxybenzylidene)-1,3-dimethyl-2,4,7-trioxo-1,2,3,4,7,8-hexahydropyrido[2,3-d]pyrimidine-5-carbohydrazide]",231 °C (dec.),> 200,3.92,3.75,–,–
"Cc1ccc(C=NNC(=O)c2cc(=O)[nH]c3c2c(=O)n(C)c(=O)n3C)cc1 [Compound 5j, 1,3-Dimethyl-N’-(4-methylbenzylidene)-2,4,7-trioxo-1,2,3,4,7,8-hexahydropyrido[2,3-d]pyrimidine-5-carbohydrazide]",284 °C (dec.),> 200,4.05,–,–,–
"Cc1cn([C@H]2C[C@H](N=[N+]=[N-])[C@@H](CO)O2)c(=O)[nH]c1=O [AZT, reference compound]",–,–,–,–,> 200,7.74
"Cn1c(=O)c2c(C(=O)NN=Cc3cccc(F)c3)cc(=O)[nH]c2n(C)c1=O [Compound 5k, N’-(3-fluorobenzylidene)-1,3-dimethyl-2,4,7-trioxo-1,2,3,4,7,8-hexahydropyrido[2,3-d]pyrimidine-5-carbohydrazide]",287 °C (dec.),> 200,3.85,2.7,–,–
"Cn1c(=O)c2c(C(=O)NN=Cc3ccccc3Cl)cc(=O)[nH]c2n(C)c1=O [Compound 5e, N’-(2-chlorobenzylidene)-1,3-dimethyl-2,4,7-trioxo-1,2,3,4,7,8-hexahydropyrido[2,3-d]pyrimidine-5-carbohydrazide]",297 °C (dec.),> 200,3.81,2.4,–,–
"Cn1c(=O)c2c(C(=O)NN=Cc3ccccc3)cc(=O)[nH]c2n(C)c1=O [Compound 5a, N’-benzylidene-1,3-dimethyl-2,4,7-trioxo-1,2,3,4,7,8-hexahydropyrido[2,3-d]pyrimidine-5-carbohydrazide]",286 °C (dec.),> 200,< 3.70,1.2,–,–
"Cn1c(=O)c2c(C(=O)NN=Cc3cccc(Cl)c3)cc(=O)[nH]c2n(C)c1=O [Compound 5f, N’-(3-chlorobenzylidene)-1,3-dimethyl-2,4,7-trioxo-1,2,3,4,7,8-hexahydropyrido[2,3-d]pyrimidine-5-carbohydrazide]",302 °C (dec.),> 200,3.92,3.75,–,–
"COc1ccc(C=NNC(=O)c2cc(=O)[nH]c3c2c(=O)n(C)c(=O)n3C)cc1 [Compound 5d, N’-(4-methoxybenzylidene)-1,3-dimethyl-2,4,7-trioxo-1,2,3,4,7,8-hexahydropyrido[2,3-d]pyrimidine-5-carbohydrazide]",231 °C (dec.),185,3.85,1.3,–,–
Cn1c(=O)c2c(C(=O)NN=Cc3ccc(F)cc3)cc(=O)[nH]c2n(C)c1=O,220.7 to 221.3 °C,–,–,–,–,–
"COc1cccc(C=NNC(=O)c2cc(=O)[nH]c3c2c(=O)n(C)c(=O)n3C)c1 [Compound 5c, N’-(3-methoxybenzylidene)-1,3-dimethyl-2,4,7-trioxo-1,2,3,4,7,8-hexahydropyrido[2,3-d]pyrimidine-5-carbohydrazide]",231 °C (dec.),> 200,3.74,1.1,–,–
"Cc1cccc(C=NNC(=O)c2cc(=O)[nH]c3c2c(=O)n(C)c(=O)n3C)c1 [Compound 5i, 1,3-Dimethyl-N’-(3-methylbenzylidene)-2,4,7-trioxo-1,2,3,4,7,8-hexahydropyrido[2,3-d]pyrimidine-5-carbohydrazide]",280 °C (dec.),> 200,3.90,4.8,–,–
"Cn1c(=O)c2c(C(=O)NN=Cc3ccc(Cl)cc3)cc(=O)[nH]c2n(C)c1=O [Compound 5g, N’-(4-chlorobenzylidene)-1,3-dimethyl-2,4,7-trioxo-1,2,3,4,7,8-hexahydropyrido[2,3-d]pyrimidine-5-carbohydrazide]",305 °C (dec.),> 200,3.96,4.5,–,–
